Measured values reported in patent US9199975B2, “Biaryl imidazole derivatives for regulating CYP17” (Asana Biosciences, LLC, priority 2011, dated 2015).

target: T1, human CYP17 (Homo sapiens, UniProt P05093); test: Cell-based human CYP17 inhibition assay, LNCap-CYP17 cells; details: 16 hours at 37° C.
T1 sequence (P05093 1-508): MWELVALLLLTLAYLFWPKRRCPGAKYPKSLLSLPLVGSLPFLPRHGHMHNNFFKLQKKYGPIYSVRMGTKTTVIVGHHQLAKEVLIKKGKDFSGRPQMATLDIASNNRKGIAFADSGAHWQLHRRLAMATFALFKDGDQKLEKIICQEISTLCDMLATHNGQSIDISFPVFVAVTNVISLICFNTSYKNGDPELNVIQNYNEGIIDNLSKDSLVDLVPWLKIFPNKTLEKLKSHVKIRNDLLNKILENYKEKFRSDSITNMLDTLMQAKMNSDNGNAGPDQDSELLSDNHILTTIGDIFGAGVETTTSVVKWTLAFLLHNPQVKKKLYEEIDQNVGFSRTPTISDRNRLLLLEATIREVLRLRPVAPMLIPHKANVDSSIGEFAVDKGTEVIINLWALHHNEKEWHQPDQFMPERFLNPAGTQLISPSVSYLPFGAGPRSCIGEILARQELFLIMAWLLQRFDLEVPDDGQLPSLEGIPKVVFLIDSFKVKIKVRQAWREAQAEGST
Protocol: Cell-Based Human CYP17 Inhibition Assay
A. Materials • 1. H295R Adrenocortical Carcinoma Cells and Growth Media: The media for the H295R Adrenocortical carcinoma cells [NCI-H295A, ATCC Number CRL-2128, American Type Culture Collection, Manassas, Va., US] (500 mL) was a DMEM:F12 Mix 1:1 with 5% […] BD Nu Serum; 1% (5 mL) ITS+Premix [BD Biosciences] and 1% Penstrep. • 2. LNCap-CYP17 Cells and Growth Media: Full length hCYP17a1 gene (NCBI Reference Sequence: NM_000102.3) was cloned in pCDNA3.1(+) vector between HindIII and XhoI site. The pCDNA3.1(+) vector contains the Neomycin resistance gene and was used for selection of stable cell line. The hCYP17a1 containing pCDNA3.1(+) was transfected into LNCap cells to create the LNCap-CYP17 cell line. The media for the LNCaP-CYP17 cells was RPMI 1640, 10% FBS, 1% PenStrep, Geneticin 400 μg/mL.
The H295R cells or LNCaP-hCYP17 cells were subcultured and 30,000 cells per well were seeded in a poly-d lysine plate and incubated overnight at 37° C. The next day the media was removed and 200 µL of fresh media with ^3H3-17α-hydroxy-pregnenolone (1:1000) was added. 50 μL of serially diluted compounds from a 5× plate (5 times the final desired concentration) was added. The working concentration range for active, new compounds started from a high concentration of […] with 3-fold serial dilutions generating up to 10 concentrations. The serial dilution in the 100× plate (in DMSO) and the stamping of a 5× plate (in media) from the 100× plate were carried out using a TECAN liquid handling device.
The plates were incubated overnight (16 hours) at 37° C. After 16 hours, the media was removed (approximately 220 μL) and an equal amount of chloroform was added, mixed and incubated for 30 minutes at 4 degrees. The plate was centrifuged at 4000 rpm for 15 minutes at 4° C., following which the top aqueous layer was carefully removed and added into a new deep well plate. An equal volume of activated 5% charcoal was added, mixed and incubated for 30 minutes at 4° C. The plate was then centrifuged at 4000 rpm for 15 minutes at 4° C. and the top layer carefully separated, avoiding any charcoal contamination, and placed in a white, clear bottom plate (plate cat #3610, Corning Life Sciences). An equal volume of Microscint™ 40 was added and mixed well. Following the incubation for 30 minutes, readings for the radiotracer were taken using a Microbeta® trilux.

| Compound | IC50 [nM] |
| --- | --- |
| CCC(c1ccc(-c2ccccc2O)cn1)n1ccnc1 (stereo not drawn) [Example 37, 2-[6-(1-Imidazol-1-yl-propyl)-pyridin-3-yl]-phenol] | 201 to 10000 |
| CCC(c1ccc(-c2cccc(OC)c2)cn1)n1ccnc1 (stereo not drawn) [Example 7, 2-(1-(1H-imidazol-1-yl)propyl)-5-(3-methoxyphenyl)pyridine] | 50 to 200 |
| CCC(c1cnc(-c2ccc(O)cc2)s1)n1ccnc1 (stereo not drawn) [Example 60, 4-[5-(1-Imidazol-1-yl-propyl)-thiazol-2-yl]-phenol] | 201 to 10000 |
| CCC(c1ccc(-c2ccc(O)cc2)o1)n1ccnc1 (stereo not drawn) [Example 30, 4-[5-(1-Imidazol-1-yl-propyl)-furan-2-yl]-phenol] | < 50 |
| CCOC(=O)c1ccc(-c2ccc(C(CC)n3ccnc3)nc2)cc1 (stereo not drawn) [Example 5, Ethyl 4-(6-(1-(1H-imidazol-1-yl)propyl)pyridin-3-yl)benzoate] | 201 to 10000 |
| CC(c1ccc(-c2ccc(O)cc2)s1)n1ccnc1 (stereo not drawn) [Example 49, 4-[5-(1-Imidazol-1-yl-ethyl)-thiophen-2-yl]-phenol] | 50 to 200 |
| CCC(c1ccc(-c2ccc(OC)cc2)o1)n1ccnc1 (stereo not drawn) [Example 27, 1-{1-[5-(4-Methoxy-phenyl)-furan-2-y]-propyl}-1H-imidazole] | 50 to 200 |
| CCC(c1cnc(-c2ccc(OC)cc2)s1)n1ccnc1 (stereo not drawn) [Example 35, 5-(1-Imidazol-1-yl-propyl)-2-(4-methoxy-phenyl)-thiazole] | 201 to 10000 |
| CCC(c1ccc(-c2cccc(O)c2)cn1)n1ccnc1 (stereo not drawn) [Example 8, 3-(6-(1-(1H-imidazol-1-yl)propyl)pyridin-3-yl)phenol] | 50 to 200 |
| CCC(c1ccc(-c2ccccc2OC)cn1)n1ccnc1 (stereo not drawn) [Example 56, 2-(1-Imidazol-1-yl-propyl)-5-(2-methoxy-phenyl)-pyridine] | 201 to 10000 |

tested on: testosterone production in H295R cells; test: Cell-based functional assay for testosterone production in H295R cells; details: Homo sapiens, NCI-H295R, 72 hours, testosterone ELISA, read-out: Testosterone (human H295R adrenal cells)
Protocol: Cell-based Functional Assay for Testosterone Production
H295R cells (ATCC Number CRL-2128) were subcultured, seeded (30,000 cells per well in a poly-d lysine plate) and left overnight at 37° C. The next day (after approximately 24 hours), the media were removed and 200 μL fresh media were added. Then, 50 μL of serially diluted compounds was added from a 5× plate. The serial dilution in the 100× plate (in DMSO) and the stamping of a 5× plate (in media) from the 100× plate were carried out using a TECAN liquid handling device. The plate was incubated at 37° C. for 72 hours. After incubation, the media was removed, diluted 5 to 10 times with calibration diluent RD5-48, and the assay performed as per manufacturer's protocol (Parameter Testosterone Assay, Cat. No. KGE010, R&D systems; http://www.rndsystems.com/pdf/KGE010.pdf).

| Compound | IC50 [nM] |
| --- | --- |
| CC(c1cnc(-c2ccc(F)cc2F)s1)n1ccnc1 (stereo not drawn) [Example 28, 2-(2,4-Difluoro-phenyl)-5-(1-imidazol-1-yl-ethyl)-thiazole] | 50 to 200 |
| CC(c1ccc(-c2ccc(F)cc2)cn1)n1ccnc1 (stereo not drawn) [Example 12, 2-(1-(1H-imidazol-1-yl)ethyl)-5-(4-fluorophenyl)pyridine] | 201 to 10000 |
| CC(c1ccc(-c2ccc(=O)n(C(C)C)c2)s1)n1ccnc1 (stereo not drawn) [Example 21, 5-(5-(1-(1H-imidazol-1-yl)ethyl)thiophen-2-yl)-1-isopropylpyridin-2(1H)-one] | 201 to 10000 |
| CC(c1cnc(-c2ccc(C#N)cc2)s1)n1ccnc1 (stereo not drawn) [Example 22, 4-(5-(1-(1H-imidazol-1-yl)ethyl)thiazol-2-yl)benzonitrile] | 201 to 10000 |
| CC(c1ccc(-c2ccc(=O)n(C)c2)s1)n1ccnc1 (stereo not drawn) [Example 20, 5-(5-(1-(1H-imidazol-1-yl)ethyl)thiophen-2-yl)-1-methylpyridin-2(1H)-one] | < 50 |
